# Measured values published in article PMC11441021, “Novel hybrids of 1,2,3-triazole-benzoxazole: design, synthesis, and assessment of DprE1 enzyme inhibitors using fluorometric assay and computational analysis” (Journal of Enzyme Inhibition and Medicinal Chemistry, 2024).
# Where “and” joins values, the source holds several entries; their conditions need not be identical. Equal entries are not always repeated.
# How the values were obtained:
# [1] = system: mouse fibroblast 3T3 cells; assay: MTT cytotoxicity assay on mouse fibroblast 3T3 cells; assay type: cell-based; conditions: for IC50: NIH3T3, MTT assay, read-out: 3T3 cell IC50; for Selectivity index: IC50 (μg/mL)/MIC (μg/mL), 3T3 cells vs Mtb H37Rv
# [2] = system: M. tuberculosis H37Rv strain; assay: Resazurin microtiter assay (REMA), MIC against Mtb H37Rv; assay type: cell-based, Mycobacterium tuberculosis; conditions: MTB H37Rv (ATCC 27294), 7 days incubation, text calls it MIC; for MIC50: Mycobacterium tuberculosis, ATCC 27294 / H37Rv, 168 h
# DprE1 = DprE1 (Mycobacterium tuberculosis, UniProt P9WJF1); assay: DprE1 inhibition (resazurin redox indicator, fluorometric) assay; assay type: biochemical; conditions: purified DprE1, GGPR substrate
# Sequence of DprE1 (P9WJF1 whole entry): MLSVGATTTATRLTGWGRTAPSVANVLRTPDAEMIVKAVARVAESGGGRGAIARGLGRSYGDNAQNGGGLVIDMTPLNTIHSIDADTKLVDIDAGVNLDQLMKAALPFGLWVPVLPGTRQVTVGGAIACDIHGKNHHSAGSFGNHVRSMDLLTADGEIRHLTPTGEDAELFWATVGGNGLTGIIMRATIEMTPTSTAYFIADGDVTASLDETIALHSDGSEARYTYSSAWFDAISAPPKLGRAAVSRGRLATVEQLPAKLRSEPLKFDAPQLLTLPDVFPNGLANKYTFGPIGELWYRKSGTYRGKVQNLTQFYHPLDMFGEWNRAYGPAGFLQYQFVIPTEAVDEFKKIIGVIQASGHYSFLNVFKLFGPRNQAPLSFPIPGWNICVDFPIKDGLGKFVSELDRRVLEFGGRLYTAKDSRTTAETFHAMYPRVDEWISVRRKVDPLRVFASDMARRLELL
# Procedure: For the identification and validation of the biological target for this new series of 1,2,3-triazole-linked benzoxazoles, compounds displaying antimycobacterial activity below 6 μg/mL and showcasing diverse side chains were assessed against the purified DprE1 protein (Table 1). The assessment of the compounds’ ability to inhibit DprE1 activity was conducted through an in-vitro assay. This involved purified DprE1 protein, geranylgeranyl-phosphoryl-β-d-ribose (GGPR) substrate, and resazurin as a redox indicator. The synthesised molecules were tested for their impact on DprE1 activity within this experimental setup. The initial rates of activity, characterised by increasing concentrations of the compound, were measured and compared to the control compound TCA-1. The half maximal inhibitory concentration (IC50) was then calculated for each synthesised compound, quantitatively assessing their inhibitory effect. […] The promising results prompted us to delve deeper into these compounds through initial assessments of their druggability profiles and validation via computational studies. This approach aims to enhance our understanding of the structural features involved in the inhibition mechanism of the DprE1 enzyme, utilising docking and molecular dynamics (MD) simulation studies.
# A redox indicator assay was conducted following a previously described protocol, utilising the reduction of resazurin to its fluorescent form, resorufin. In this assay, the DprE1 cofactor FAD undergoes reduction to FADH2, while the C-2 hydroxyl group of the substrate GGPR is oxidised to form a keto-intermediate known as geranylgeranylphosphoryl-β-d-2′-keto-erythro-penta-furanose (GGPX)[11]^,[40]. The inhibition of DprE1 was assessed using an activity assay, with the half maximal inhibitory concentration (IC50) determined for each tested compound. Intermediate plates of compounds were prepared in V-bottomed 96-well plates, where the compounds were serially diluted twofold in DMSO. Subsequently, 1 µL of each compound dilution was pipetted in triplicate into Greiner black-bottomed 384 plates. The master mix (19 µL), comprising 5 µM DprE1, 50 mM Hepes pH 7.5, 100 mM NaCl, and 100 µM resazurin, was added to the compounds in the plate. The assay was initiated with 5 µL of 1 mM GGPR using the pump on the POLARstar Omega plate reader (BMG Labtech). Emission was measured at 590 nm with excitation at 530 nm at 37 °C[41]^. IC50 values were calculated using Prism GraphPad, fitting the data to a four-parameter dose–response curve. The initial rates of activity were used for the calculations, and fluorescence units were converted to µM resazurin reduced by referencing a resorufin standard curve.
# [3] = Mus musculus, mouse fibroblast 3T3 cells, cytotoxicity
Compound,"IC50 [1, 3] [µg/mL]",MIC50 [2] [µg/mL],IC50 (DprE1),melting point [°C],further results
"O=c1[nH]cc(F)c(=O)[nH]1 [5-Fluorouracil, reference compound]",53.7,,,,"inhibition at 50 µg/mL ([1]; Mus musculus, NIH3T3, MTT assay, 50 μg/mL, read-out: percentage inhibition of 3T3 cells): > 42%"
"O=C(CC(=O)Nc1ccccc1)Cn1cc(CSc2nc3ccccc3o2)nn1 [BOK-1, 4–(4-((Benzo[d]oxazol-2-ylthio)methyl)-1H-1,2,3-triazol-1-yl)-3-oxo-N-phenyl butanamide]",118,≤ 6.25,5.2 ± 0.6 µM,,Selectivity index [1]: 37.07
"Cc1ccccc1NC(=O)CC(=O)Cn1cc(CSc2nc3ccccc3o2)nn1 [BOK-2, 4–(4-((Benzo[d]oxazol-2-ylthio)methyl)-1H-1,2,3-triazol-1-yl)-3-oxo-N-(o-tolyl) butanamide]",104,,2 µM and 2.2 µM,,"Selectivity index [1]: 57.77; 3T3 cell IC50 ([1]; MTT assay, mouse fibroblast 3T3 cells, cytotoxicity): 103.92 µg/mL"
"O=C(CC(=O)Nc1ccccc1F)Cn1cc(CSc2nc3ccccc3o2)nn1 [BOK-3, 4–(4-((Benzo[d]oxazol-2-ylthio)methyl)-1H-1,2,3-triazol-1-yl)-N-(2-fluorophenyl)-3-oxobutanamide]",112,,3 ± 0.6 µM,,Selectivity index [1]: 46.75
"O=C(CC(=O)Nc1cccc(Cl)c1)Cn1cc(CSc2nc3ccccc3o2)nn1 [BOK-4, 4–(4-((Benzo[d]oxazol-2-ylthio)methyl)-1H-1,2,3-triazol-1-yl)-N-(3-chlorophenyl)-3-oxobutanamide]",,3.7,,165 to 169,Mtb H37Rv MIC50 [2]: 6.9 µg/mL
"Cc1ccc(NC(=O)CC(=O)Cn2cc(CSc3nc4ccccc4o3)nn2)cc1 [BOK-5, 4–(4-((Benzo[d]oxazol-2-ylthio)methyl)-1H-1,2,3-triazol-1-yl)-3-oxo-N-(p-tolyl) butanamide]",,11.6,,175 to 179,
"O=C(CC(=O)Nc1ccc(C(F)(F)F)cc1)Cn1cc(CSc2nc3ccccc3o2)nn1 [BOK-6, 4–(4-((Benzo[d]oxazol-2-ylthio)methyl)-1H-1,2,3-triazol-1-yl)-3-oxo-N-(4-(trifluoromethyl)phenyl)butanamide]",,39.6,,185 to 189,
"O=C(CC(=O)Nc1ccc(Cl)cc1)Cn1cc(CSc2nc3ccccc3o2)nn1 [BOK-7, 4–(4-((Benzo[d]oxazol-2-ylthio)methyl)-1H-1,2,3-triazol-1-yl)-N-(4-chlorophenyl)-3-oxo butanamide]",,6.9,,171 to 174,Mtb H37Rv MIC50 [2]: 6.7 µg/mL
"O=C(CC(=O)Nc1ccc(Br)cc1)Cn1cc(CSc2nc3ccccc3o2)nn1 [BOK-8, 4–(4-((Benzo[d]oxazol-2-ylthio)methyl)-1H-1,2,3-triazol-1-yl)-N-(4-bromophenyl)-3-oxo butanamide]",,44.1,,210 to 214,
"COc1ccc(NC(=O)CC(=O)Cn2cc(CSc3nc4ccccc4o3)nn2)cc1 [BOK-9, 4–(4-((Benzo[d]oxazol-2-ylthio)methyl)-1H-1,2,3-triazol-1-yl)-N-(4-methoxyphenyl)-3-oxo butanamide]",,10.6,,169 to 172,
"CCOc1ccc(NC(=O)CC(=O)Cn2cc(CSc3nc4ccccc4o3)nn2)cc1 [BOK-10, 4–(4-((Benzo[d]oxazol-2-ylthio)methyl)-1H-1,2,3-triazol-1-yl)-N-(4-ethoxyphenyl)-3-oxo butanamide]",,42.6,,175 to 179,
"O=C(Cn1cc(CSc2nc3ccccc3o2)nn1)c1ccccc1 [BOP-1, 2–(4-((Benzo[d]oxazol-2-ylthio)methyl)-1H-1,2,3-triazol-1-yl)-1-phenylethan-1-one]",51.7,≤ 6.25,3.3 ± 1 µM,,Selectivity index [1]: 8.76
"COc1ccc(C(=O)Cn2cc(CSc3nc4ccccc4o3)nn2)cc1 [BOP-2, 2–(4-((Benzo[d]oxazol-2-ylthio)methyl)-1H-1,2,3-triazol-1-yl)-1–(4-methoxyphenyl)ethan-1-one]",,19.1,,148 to 152,
"Cc1ccc(C(=O)Cn2cc(CSc3nc4ccccc4o3)nn2)cc1 [BOP-3, 2–(4-((Benzo[d]oxazol-2-ylthio)methyl)-1H-1,2,3-triazol-1-yl)-1-(p-tolyl)ethan-1-one]",,20.5,,142 to 146,
"O=C(Cn1cc(CSc2nc3ccccc3o2)nn1)c1ccc(F)cc1 [BOP-4, 2–(4-((Benzo[d]oxazol-2-ylthio)methyl)-1H-1,2,3-triazol-1-yl)-1–(4-fluorophenyl)ethan-1-one]",55.8,≤ 6.25,3.1 ± 0.7 µM,,Selectivity index [1]: 11.62
"O=C(Cn1cc(CSc2nc3ccccc3o2)nn1)c1ccc([N+](=O)[O-])cc1 [BOP-5, 2–(4-((Benzo[d]oxazol-2-ylthio)methyl)-1H-1,2,3-triazol-1-yl)-1–(4-nitrophenyl)ethan-1-one]",,32.3,,142 to 146,
"CO[C@H]1/C=C/O[C@@]2(C)Oc3c(C)c(O)c4c(O)c(c(/C=N/N5CCN(C)CC5)c(O)c4c3C2=O)NC(=O)/C(C)=C\C=C\[C@H](C)[C@H](O)[C@@H](C)[C@@H](O)[C@@H](C)[C@H](OC(C)=O)[C@@H]1C [Rifampicin, reference compound]",,< 0.004,,,
"CCOC(=O)NC(=O)c1ccsc1NC(=O)c1nc2ccccc2s1 [TCA-1, reference compound]",,,3 ± 0.2 µM,,
